Source: ChEMBL document CHEMBL1201862, “PubChem BioAssay data set” (2004)
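These data come from cells grown in 96-well plates and exposed to compound for 48 hours at five concentrations. The concentration for 50% growth inhibition is given as GI50.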 Calls of active or inactive are those of the source. Rule as the data show it: active = GI50 up to about 1.1 µM and inactive = higher.

Legend:
Assay in all cases: inhibition of tumour cell growth, NCI panel, 48 h
M14 = tested on: M14
786-0 = tested on: 786-0
SK-OV-3 = tested on: SK-OV-3
A549 = tested on: A549
SNB-19 = tested on: SNB-19
MDA-MB-231 = tested on: MDA-MB-231
HCT-15 = tested on: HCT-15
MDA-N = tested on: MDA-N
Malme-3M = tested on: Malme-3M
OVCAR-8 = tested on: OVCAR-8
UACC-257 = tested on: UACC-257
SK-MEL-28 = tested on: SK-MEL-28
IGROV-1 = tested on: IGROV-1
DMS-273 = tested on: DMS-273
EKVX = tested on: EKVX
UO-31 = tested on: UO-31
OVCAR-3 = tested on: OVCAR-3
KM-20L2 = tested on: KM-20L2
NCI-H23 = tested on: NCI-H23
HOP-62 = tested on: HOP-62
NCI/ADR-RES = tested on: NCI/ADR-RES
DU-145 = tested on: DU-145
SF-268 = tested on: SF-268
BT-549 = tested on: BT-549
NCI-H522 = tested on: NCI-H522
DLD-1 = tested on: DLD-1
MCF7 = tested on: MCF7
CCRF-CEM = tested on: CCRF-CEM
SN12C = tested on: SN12C
DMS-114 = tested on: DMS-114
KM12 = tested on: KM12
SK-MEL-5 = tested on: SK-MEL-5
T47D = tested on: T47D
HT-29 = tested on: HT-29
MOLT-4 = tested on: MOLT-4
SK-MEL-2 = tested on: SK-MEL-2
M19-MEL = tested on: M19-MEL
SNB-78 = tested on: SNB-78
SNB-75 = tested on: SNB-75
SF-295 = tested on: SF-295
COLO 205 = tested on: COLO 205
HCT-116 = tested on: HCT-116
HOP-18 = tested on: HOP-18
SW-620 = tested on: SW-620
LXFL 529 = tested on: LXFL 529
CAKI-1 = tested on: CAKI-1
RXF 393 = tested on: RXF 393
ACHN = tested on: ACHN
OVCAR-4 = tested on: OVCAR-4
NCI-H226 = tested on: NCI-H226
XF498 = tested on: XF498
K562 = tested on: K562
LOX IMVI = tested on: LOX IMVI
HOP-92 = tested on: HOP-92
MDA-MB-435 = tested on: MDA-MB-435
UACC-62 = tested on: UACC-62
Hs-578T = tested on: Hs-578T
RXF 631 = tested on: RXF 631
HL-60 = tested on: HL-60
NCI-H460 = tested on: NCI-H460
SF-539 = tested on: SF-539
A498 = tested on: A498
SR = tested on: SR
RPMI-8226 = tested on: RPMI-8226
HCC 2998 = tested on: HCC 2998

CN(C)CCCCN1CCc2c(n(C)c3ccccc23)C1=O
GI50 (M14): 18.5 µM (inactive)
GI50 (786-0): 61.1 µM (inactive)
GI50 (SK-OV-3): > 70 µM (inactive)
GI50 (A549): 64.7 µM (inactive)
GI50 (SNB-19): > 76.9 µM (inactive)
GI50 (MDA-MB-231): 24.6 µM (inactive)
GI50 (HCT-15): 39.4 µM
GI50 (MDA-N): 13.4 µM (inactive)
GI50 (Malme-3M): 21.7 µM (inactive)
GI50 (OVCAR-8): > 83.4 µM (inactive)
GI50 (UACC-257): 17.2 µM (inactive)
GI50 (SK-MEL-28): 20.3 µM (inactive)
GI50 (IGROV-1): > 72.6 µM (inactive)
GI50 (DMS-273): > 66.7 µM (inactive)
GI50 (EKVX): 51.5 µM (inactive)
GI50 (UO-31): 56.9 µM (inactive)
GI50 (OVCAR-3): > 78.9 µM (inactive)
GI50 (KM-20L2): 33 µM (inactive)
GI50 (NCI-H23): 82 µM (inactive)
GI50 (HOP-62): 51.3 µM (inactive)
GI50 (NCI/ADR-RES): 39.4 µM (inactive)
GI50 (DU-145): > 84.5 µM (inactive)
GI50 (SF-268): 48.1 µM (inactive)
GI50 (BT-549): > 37.8 µM (inactive)
GI50 (NCI-H522): 55.3 µM (inactive)
GI50 (DLD-1): 60.4 µM (inactive)
GI50 (MCF7): 37.3 µM (inactive)
GI50 (CCRF-CEM): 67.9 µM (inactive)
GI50 (SN12C): 68.1 µM (inactive)
GI50 (DMS-114): > 80.7 µM (inactive)
GI50 (KM12): 68.7 µM (inactive)
GI50 (SK-MEL-5): 21.3 µM (inactive)
GI50 (T47D): 23.4 µM (inactive)
GI50 (HT-29): 24.3 µM (inactive)
GI50 (MOLT-4): 48.1 µM (inactive)
GI50 (SK-MEL-2): 25.9 µM (inactive)
GI50 (M19-MEL): 38 µM (inactive)
GI50 (SNB-78): > 100 µM (inactive)
GI50 (SNB-75): 34.1 µM (inactive)
GI50 (SF-295): 48.4 µM (inactive)
GI50 (COLO 205): 35.3 µM (inactive)
GI50 (HCT-116): 40.3 µM (inactive)
GI50 (HOP-18): > 100 µM (inactive)
GI50 (SW-620): 44.4 µM (inactive)
GI50 (LXFL 529): 19.4 µM (inactive)
GI50 (CAKI-1): > 55.8 µM (inactive)
GI50 (RXF 393): 31.5 µM (inactive)
GI50 (ACHN): > 77.1 µM (inactive)
GI50 (OVCAR-4): > 86.7 µM (inactive)
GI50 (NCI-H226): > 61.5 µM (inactive)
GI50 (XF498): 20.7 µM (inactive)
GI50 (K562): 23.4 µM (inactive)
GI50 (LOX IMVI): 25.9 µM (inactive)
GI50 (HOP-92): 32 µM (inactive)
GI50 (MDA-MB-435): 17.5 µM (inactive)
GI50 (UACC-62): 26 µM (inactive)
GI50 (Hs-578T): 41.8 µM (inactive)

COc1cc([C@@H]2Oc3cc4oc(-c5ccccc5)cc(=O)c4c(O)c3O[C@H]2OC)ccc1O
GI50 (M14): 11 µM (inactive)
GI50 (786-0): 8.2 µM (inactive)
GI50 (SK-OV-3): 17.8 µM (inactive)
GI50 (Malme-3M): 14.3 µM (inactive)
GI50 (SK-MEL-28): 4.69 µM (inactive)
GI50 (RXF 631): 17.8 µM (inactive)
GI50 (IGROV-1): 22.4 µM (inactive)
GI50 (DMS-273): 4.03 µM (inactive)
GI50 (NCI-H23): 10.8 µM (inactive)
GI50 (HOP-62): 13.2 µM (inactive)
GI50 (HL-60): 2.85 µM (inactive)
GI50 (SF-268): 6.03 µM (inactive)
GI50 (NCI-H522): 5.97 µM (inactive)
GI50 (DLD-1): 7.69 µM (inactive)
GI50 (CCRF-CEM): 3.7 µM (inactive)
GI50 (SN12C): 12.1 µM (inactive)
GI50 (NCI-H460): 4.48 µM (inactive)
GI50 (MOLT-4): 4.91 µM (inactive)
GI50 (SK-MEL-2): 14.8 µM (inactive)
GI50 (SF-539): 15 µM (inactive)
GI50 (M19-MEL): 7.4 µM (inactive)
GI50 (SNB-78): 18.2 µM (inactive)
GI50 (SNB-75): 12.4 µM (inactive)
GI50 (A498): 14.3 µM (inactive)
GI50 (COLO 205): 20.5 µM (inactive)
GI50 (HCT-116): 7.16 µM (inactive)
GI50 (LXFL 529): 11.1 µM (inactive)
GI50 (CAKI-1): 19.4 µM (inactive)
GI50 (SR): 4.14 µM (inactive)
GI50 (ACHN): 11 µM (inactive)
GI50 (RPMI-8226): 5.71 µM (inactive)
GI50 (OVCAR-4): 14.6 µM (inactive)
GI50 (NCI-H226): 19.3 µM (inactive)
GI50 (K562): 5.71 µM (inactive)
GI50 (HCC 2998): 13.2 µM (inactive)
GI50 (HOP-92): 23.6 µM (inactive)
GI50 (UACC-62): 15 µM (inactive)
